Values quoted from earlier work in US7211274B2, “Hair growth formulation” (Hovis SDN BHD, priority 2002, dated 2007).

Conditions: reported

**Q.** Which “Half life in humans” value does the source give for tocopherols here?
**A.** Its value is “about 20 hours”.

**Q.** For tocotrienols, which “Half life in humans” value is on record?
**A.** The value was 2 to 4 h.
